Measured values reported in the METLIN SMRT retention time set (Domingo-Almenara et al. 2019).

test: gradient 5% acetonitrile 3 min, to 50% in 2 min, to 85% in 15 min, held 3 min, 100 µL/min; details: column: Zorbax Extend-C18 2.1 x 50 mm; eluents: water / acetonitrile, 0.1% formic acid
Method in brief: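 Standards, all pure, were combined into mixtures of ~100 molecules and run at 100 μL/min on a Zorbax Extend-C18 column (2.1 × 50 mm, 1.8 μm) with water and acetonitrile, each containing 0.1% formic acid. A coupled quadrupole time-of-flight mass spectrometer operated in positive and negative ionization mode. Retention time values come from computationally picked adduct peaks, each inspected manually.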

Structure (SMILES)	RP-LC retention time
Cn1nc(C2CCN(C(=O)NCc3ccccc3)CC2)c2c1CCOC2	668 s
Cc1ccn2cc(C(=O)NCc3ccc(F)cc3F)nc2c1	655 s
Cc1ccn2cc(C(=O)NCCc3ccc(S(N)(=O)=O)cc3)nc2c1	551 s
COc1ccc(-c2nc(-c3ccc4oc(C)nc4c3)no2)c(C)c1	1170 s
C=CCNC(=O)N1CCCN(C2=NS(=O)(=O)C(c3ccc(C)cc3)=C2C)CC1	732 s
O=C(Nc1ccc2c(c1)C(=O)N1CCCCC1CCO2)c1ccco1 (configuration not stated)	692 s
Cc1ccc(C)c(N2CCN(c3ccnc(SCC(=O)NCCCc4ccccc4)n3)CC2)c1	1060 s
O=C1CCCCC(Cc2ccccc2)(C(=O)NCc2cccc(C(F)(F)F)c2)N1 (configuration not stated)	893 s
Cc1ccc(NC(=O)C2CC(=O)N(CCc3c[nH]c4ccc(F)cc34)C2)c(C)c1 (configuration not stated)	847 s
COc1cccc(-c2cc(=O)n3c4ccccc4n(CC(=O)Nc4ccc5c(c4)OCO5)c3n2)c1	924 s
CCCOc1nccnc1N1CCC(N(C)C(=O)Cc2cccnc2)C1 (configuration not stated)	599 s
COC(=O)c1ccc(Cn2cnc3c(Cl)ncnc32)cc1	790 s
Cc1ccc(NS(=O)(=O)c2ccc3c(c2)C(=O)N(C)c2ncccc2O3)c(C)c1	986 s
O=C(Nc1cccn2cnnc12)c1ccc(C(F)(F)F)cc1	744 s
CC1CCCN(c2ccc(-c3noc(CN4CCc5ccccc5C4)n3)cn2)C1 (configuration not stated)	970 s
COc1ccc(CCS(=O)(=O)NCC2(CO)CC2)cc1	662 s
CNC(=O)CN(C)C(=O)c1cc2c(s1)N(C)CCCC2	686 s
Cc1ccc(C)c(-c2coc(-c3ccc(NC(=O)NCc4ccco4)cc3)n2)c1	1110 s
COc1cc2c(cc1OC)C(C(=O)NCc1ccc3c(c1)OCO3)C1c3ccccc3CCN1C2=O (configuration not stated)	788 s

Structure (SMILES)	RP-LC retention time
O=C(Cc1ccc(Cl)cc1)N1CCc2nc(-c3ccc(Cl)cc3)ncc2C1	1130 s
COC(=O)c1ccc2c(=O)n(-c3cccc(OC)c3)c(N3CCSC3)nc2c1	1020 s
O=C(Cc1csc(Nc2cccc(Cl)c2)n1)NCc1cccnc1	575 s
CCn1ccc(C(=O)N2CCCC2c2ccccc2C)n1 (configuration not stated)	870 s
CS(=O)(=O)c1ccc(Cl)c(NC(=O)c2cccnc2)c1	590 s
O=C(c1cccnc1)N1CCC2(CC1)N=C(c1ccc(Cl)cc1)NO2	682 s
COc1ccc(-c2nc(-c3ccc4oc(C)nc4c3)no2)cc1	1090 s
O=C(c1cccs1)N1CCCc2cc(NS(=O)(=O)c3cc(F)ccc3F)ccc21	832 s
Cc1ccc(S(=O)(=O)N2CCc3nc(-c4ccc(F)cc4)ncc3C2)c(C)c1	1220 s
Cc1ccc(S(=O)(=O)N2CCC(n3cnnc3-c3ccccc3)CC2)c(C)c1	844 s
CN1CCn2cc(S(=O)(=O)Nc3cccc(F)c3)cc2C1=O	687 s
COc1cccc(NC(=O)Cn2c(N)nc(C)cc2=O)c1	581 s
Cc1ccc2c(c1)N(Cc1cc(F)cc(F)c1)N=C(C(=O)N1CCC(C)CC1)S2(=O)=O	1080 s
O=C(Nc1nccs1)C1CCN(C(=O)C2c3ccccc3Oc3ccccc32)CC1	799 s
O=C(Cc1ccc(NC(=O)NC2CC2)cc1)NCC(F)(F)F	611 s
CCOC(=O)c1ccccc1NC(=O)N1CCc2nc[nH]c2C1	626 s
CCC1CN2C=NC(N3CCN(C(=O)Cc4ccccc4)CC3)=CC2=N1 (configuration not stated)	615 s
Cc1ccc(S(=O)(=O)N2CCCC2C(=O)Nc2nnc(-c3ccc(C)c(C)c3)o2)cc1 (configuration not stated)	872 s
